Tested on: AMF infections of western wheatgrass (Pascopyron smithii) roots
Experiment: Field plot study: AM fungal infection of western wheatgrass roots
Type: in vivo
Conditions: for AM Infection t = 0 days / AM Infection t = 47 days / AM Infection t = 97 days: western wheatgrass roots, field plots, mean n = 3; for AM Infection t = 0 days: first sampling; for AM Infection t = 97 days: third sampling
Text: Twelve plots of size 50 cm by 50 cm were established on a homogenous site 2.54 meters (running northeast and southwest) by 4.06 meters (running southeast and northwest). Plant distribution was mostly homogeneous across the entire site, with western wheatgrass dominant. The plots were in four rows with three plots in each row. Within a row plots were 25 cm apart. Rows were 50 cm apart. An experimental unit was one plot. Treatments were replicated three times. Treatments included: controls (no treatment), potassium chloride treatment, potassium phosphate treatment, and potassium phosphite treatment. (See, FIG. 2).
Treatments: All plots received the same amount of solution. The control plots were treated with distilled water only (6.375 L). The KCl plots treated with distilled water containing the same amount of K as was needed to convert the phosphorous acid (H3PO3) to dipotassium phosphite (K2HPO3). The phosphate plots were treated with sufficient dipotassium phosphate (K2HPO4) to deliver 3 g of P per plot dissolved in the same amount of distilled water as the control plots received and the KCl plots received. The phosphite plots were treated with sufficient dipotassium phosphite (K2HPO3) to deliver 3 g of P per plot dissolved in the same amount of distilled water as the control plots received, the KCl plots received and the phosphate plots received.
The field experiment reported in this example was conducted during June through October. Plots were established during early June and treated on the 15th and 16th day (as in Example 3 above). […] Sample size and depth was as detailed above in Example 3.
Analyses of infections were performed by examining roots of wheatgrass (Pascopyron smithii). This plant was the dominant plant in all of the plots and is known to be commonly infected with AM fungi. (See, Loree M. A. J. and Williams S. E., New Phytologist, 106:735-744, 1987; and Wang B. and Qui Y.-L. 2006, Ibid.). During sampling of soils using the methodology outlined in Example 3, above, root of target plants were removed and separated by plant species, each sample being labeled and preserved in FAA solution until being further processed.
Staining of the roots was achieved according to published procedures (see, Phillips J. M. and Hayman D. S., Trans. Brit. Mycological Soc., 55:158-160, 1970) except that cotton blue lactophenol was substituted with lactic acid glycerol with trypan blue since lactophenol is toxic. The procedure used for staining was as follows: • A) Remove roots from FAA Solutions. Cut into 1 cm lengths. Place in test tube, push roots to the bottom of the test tube. • B) Cover roots with 10% KOH (10 grams of reagent grade KOH in enough distilled water to 100 ml). Let stand overnight, about 10 hours. • C) Simmer at 90° C. for one hour in a water bath (container with water and test tubes with roots over a heat source). • D) Rinse in tap water. • E) Rinse five minutes in 0.1 N HCl (3.65 […] of HCl in 1000 ml total volume with distilled water). • F) Rinse in tap water. • G) Simmer at 90° C. one hour (in water bath) in Trypan blue Lactic Acid Glycerol (distilled water, 100 ml; lactic acid (reagent grade 85 to 88%) 100 ml; glycerin (reagent grade 85% also listed as glycerol), 200 ml; trypan blue, 0.1 grams (60% dye content). • H) Rinse in tap water. • I) Place in clear lactic acid glycerol (same formulation as above except without the Trypan blue) if destaining is necessary. Samples can be simmered at 90° C. (one hour in water bath) or left at room temperature for at least 72 hours or longer. • J) Mount on standard glass slide (2.5 cm by 7.6 cm) in lactic acid glycerol. Cover slip (2.3 cm by 4.8 cm) used.
An estimate of the degree of infection of western wheatgrass was made by making microscopic scans of each slide such that 40 root segments were evaluated. The evaluation was performed using the 20× objective, e.g., 200× total magnification—eyepieces were 10× multiplied by the objective magnification. […]

## OP(O)O [PO3, dipotassium phosphite]
  AM Infection t = 0 days: 32Aa Per forty 1.1 mm root segments
  AM Infection t = 97 days: 39ACc Per forty 1.1 mm root segments
Second sampling
  AM Infection t = 47 days: 31Aab Per forty 1.1 mm root segments

## O=P([O-])([O-])O.[K+].[K+] [PO4, dipotassium phosphate]
Second sampling, t = 47
  root infection level compared with control, KCl and phosphite plots: significant increase
  AM Infection t = 0 days: 31Aa Per forty 1.1 mm root segments
  AM Infection t = 97 days: 38ACc Per forty 1.1 mm root segments
Second sampling
  AM Infection t = 47 days: 38.7Bbc Per forty 1.1 mm root segments
